The results in this text go back to PubChem BioAssay AID742 (SRMLSC, 2007).

Assay [1] has as its system human cells, Her2 expression AlphaScreen; CTG viability. The assay can be described thus: Her2 expression suppression with viability readout – cell-based, AlphaScreen, CellTiter-Glo viability, dose response (AID 742). As to conditions: viability, CellTiter-Glo.
Assay in assay [2]: as above
The note with it: human cells, Her2 expression AlphaScreen; CTG viability; at 9.62 µM (top of the series).

Molecules are shown by their SMILES. Active and inactive are the calls of the source. How the calls were made is not given here. Some results are limits rather than exact numbers.

Regarding `COC(=O)c1sccc1NC(=O)c1csc(C)c1`, the EC50 – broadly, the concentration that produces a half-maximal response – in assay [1] was above 9.62 µM. In assay [2], the Her2 inhibition is 29.8% (inactive).
In assay [1], `N#CCCS(=O)(=O)c1nnnn1-c1ccccc1` showed an EC50 above 9.62 µM. Further, the Her2 inhibition in assay [2] is 3.51% (inactive).
Compound `N#CC(C#N)=c1ccc2c(c1)NC1(CCCCC1)N=2` had an EC50 in assay [1] above 9.62 µM. For the same compound, in assay [2], the Her2 inhibition was 43.8% (inactive).
For `Cn1c(=O)c2c(SCc3cccc(C(F)(F)F)c3)nc(-c3ccco3)nc2n(C)c1=O`, in assay [1], the EC50 is above 9.62 µM. Moreover, the Her2 inhibition in assay [2] was -20.9% (inactive).
Turning to `O=C(CCCCCn1c(=S)[nH]c2cc3c(cc2c1=O)OCO3)N1CCN(C2CCCCC2)CC1`, the EC50 in assay [1] was above 9.62 µM. For the same compound, the Her2 inhibition in assay [2] was 4.12% (inactive).
With `CN1CC2=Cc3ccccc3OC23Oc2ccccc2C=C3C1`, the EC50 in assay [1] was above 9.62 µM. Also, the Her2 inhibition in assay [2] was -10.3% (inactive).
As to `C1CCC(C(CC2CCCCN2)C2CCCCC2)CC1` (stereo not given), the EC50 in assay [1] is above 9.62 µM. Besides, the Her2 inhibition in assay [2] was -33.2% (inactive).
Compound `CSCC[C@H](NC(=O)NCc1ccc(F)cc1)C(=O)O` showed an EC50 in assay [1] above 9.62 µM. Also, in assay [2], the Her2 inhibition is -11.5% (inactive).
For `CCN(CCNC(=O)C1CCN(Cc2nc(-c3cccc(Cl)c3)oc2C)CC1)c1ccccc1`, in that order: above 9.62 µM and -54.8% (inactive).
The corresponding values for `CCCCCCCCNC(C)C(O)c1ccc(SC(C)C)cc1` (stereo not given) are above 9.62 µM and -16.3% (inactive).
The compound `O=C(Nc1ccccc1NC(=O)NC1CCCCC1)NC1CCCCC1` displayed an EC50 in assay [1] above 9.62 µM. Besides, the Her2 inhibition in assay [2] was -1.72% (inactive).
Turning to `CCOc1ccc(-c2nnn(CC(=O)c3cc(OC)ccc3OC)n2)cc1`, the EC50 in assay [1] was above 9.62 µM. Also, the Her2 inhibition in assay [2] was -22.6% (inactive).
Regarding `Nc1nc(-c2cccs2)c(NC(=O)c2ccccc2)s1`, the EC50 in assay [1] was above 9.62 µM. In addition, the Her2 inhibition in assay [2] is -8.18% (inactive).
Turning to `CCN(CC)C(=O)c1csc(Nc2ccc(C)cc2)n1`, the EC50 in assay [1] was above 9.62 µM. Further, the Her2 inhibition in assay [2] is -12.9% (inactive).
The compound `CC(C)(C)OC(=O)NCCc1nnc(S(=O)(=O)Cc2ccc(Cl)cc2Cl)o1` showed an EC50 in assay [1] above 9.62 µM. In assay [2], the Her2 inhibition was -15.5% (inactive).
As for `Oc1cccc2ccc(Nc3ccccn3)nc12`, the EC50 in assay [1] was above 9.62 µM. For the same compound, the Her2 inhibition in assay [2] is 31.3% (inactive).
In the case of `C=C(C)COc1ccc(-c2n[nH]c(C)c2Oc2ccccc2OC)c(O)c1`, in assay [1], the EC50 is above 9.62 µM. Also, the Her2 inhibition in assay [2] was -8.71% (inactive).
Compound `O=C1/C(=N/n2cnnc2)c2ccccc2N1Cc1ccccc1` came in with an EC50 in assay [1] above 9.62 µM. The Her2 inhibition in assay [2] is -25% (inactive).
With `O=S(=O)(CCSc1nc2ccccc2o1)c1nc2ccccc2s1`, the EC50 in assay [1] is above 9.62 µM. Further, in assay [2], the Her2 inhibition is -10.1% (inactive).
With `CCOC(=O)C(C(=O)OCC)c1cc(Br)c2noc3c2c1C(=O)c1ccccc1-3`, the EC50 in assay [1] was above 9.62 µM. The Her2 inhibition in assay [2] is 18.8% (inactive).
In the case of `OCCN1CCN(CCCN2c3ccccc3Sc3ccc(C(F)(F)F)cc32)CC1`, in assay [1], the EC50 is above 9.62 µM. Moreover, the Her2 inhibition in assay [2] is 12.6% (inactive).
In assay [1], `CC1=CC(C)(C)Nc2ccc(OC(=O)c3ccco3)cc21` gave an EC50 above 9.62 µM. In addition, the Her2 inhibition in assay [2] was 1.48% (inactive).
For `Cc1ccc(S(=O)(=O)CCC(=O)c2ccc(O)cc2O)cc1`, in that order: above 9.62 µM and 1.34% (inactive).
`O=C(c1ccc(F)cc1)C(CN1CCOCC1)c1ccccc1` (stereo not given) had an EC50 in assay [1] above 9.62 µM. Further, in assay [2], the Her2 inhibition is 28.5% (inactive).
On to `O=C(NCc1cccs1)c1nc2c(nnn2Cc2ccccc2Cl)c(=O)[nH]1`, for which, in assay [1], the EC50 was above 9.62 µM. Further, the Her2 inhibition in assay [2] was 45.2% (inactive).
`O=S(=O)(c1ccc(F)cc1)N(CCO)CC(O)Cn1c2ccccc2c2ccccc21` (stereo not given): the EC50 in assay [1] is above 9.62 µM. Also, the Her2 inhibition in assay [2] is -33.6% (inactive).
For `CC(=NCC1CCCO1)c1c(O)n(-c2ccccc2)c(=O)[nH]c1=O` (stereo not given), in that order: above 9.62 µM and -6.53% (inactive).
Regarding `CCn1c(SCC(=O)C(C)(C)C)nnc1-c1cnccn1`, the EC50 in assay [1] is above 9.62 µM. For the same compound, the Her2 inhibition in assay [2] was 2.82% (inactive).
`COc1ccc2oc(=O)c(-c3nnc(NCc4ccco4)s3)cc2c1`: the EC50 in assay [1] is above 9.62 µM. In assay [2], the Her2 inhibition is -2.67% (inactive).
As to `COc1ccc(-c2nnc(SC(=O)N3c4ccccc4Sc4ccccc43)o2)cc1`, the EC50 in assay [1] was above 9.62 µM. Also, the Her2 inhibition in assay [2] is -24.1% (inactive).
